Source: patent publication EP1839675A1, “NOVEL METHOD OF PROTECTING ISCHEMIC CARDIOPATHY” (Japan Science and Technology Agency, priority 2004, dated 2006)

What was measured:
[1] = tested on: neonatal rat ventricular myocytes; assay: Cell viability (MTT) after ischemic treatment and post-ischemic reperfusion in primary cultures; assay type: cell-based; conditions: for effect of dbcAMP + PMA on cell viability under co-application of CFTR channel blocker: DP plus NPPB 50 µM, glibenclamide 500 µM, gemfibrozil 2 mM or 9AC 2 mM during ischemic treatment, MTT after 96 hours reperfusion
Procedure: Primary cultures of ventricular myocytes were prepared from the hearts of neonatal rats by enzyme treatment. M199+10% FBS was used as culture medium. To reduce the number of contaminating non-myocardial cells, the medium was supplemented with 100 µM BrdU during incubation. The primary cell cultures of rat myocardial cells were subjected to ischemic treatment (removal of glucose and oxygen) and post-ischemic reperfusion according to the following procedures. The medium was replaced with a glucose-free solution, which contained 108 mM NaCl, 0.5 mM MgCl2, 5.4 mM KCl, 1mM CaCl2, and 5 mM HEPES (pH adjusted to 7.4 with NaHCO3), and were incubated at 37°C for 8 hours under anaerobic conditions, which were created by replacing air with a gas mixture of 95% Ar and 5% CO2. Immediately after incubation, the solution was replaced with a glucose-containing normal medium (M199+10% FBS), and then left in a CO2 incubator (95% air (20% O2), 5% CO2, 37°C) for 96 hours (reperfusion: re-supply of glucose/reoxygenation). Cl^- channel blocker (NPPB) was administered to the primary cell cultures of rat ventricular myocytes 1 hour prior to ischemic treatment, or at the start of ischemic treatment that lasted 8 hours. Cl- channel blocker (NPPB) was also administered over a time period of 18 hours after the start of post-ischemic reperfusion. Cell viability was assayed using MTT. To ensure accuracy in viable cell count, the assay was performed using cells obtained 96 hours after the start of post-ischemic reperfusion (Figure 1).
Primary cultures of rat ventricular myocytes were prepared and cultured in the manner described in Example 1. The procedures of Example 1 were also used to expose the primary cultures of rat ventricular myocytes to ischemic treatment (removal of glucose and oxygen) and post-ischemic reperfusion.
During ischemic treatment, the primary cultures of rat ventricular myocytes were administered with CFTR channel activator (PKA activator dbcAMP (1mM) or PKC activator PMA (100 nM), or both (DP)), or CFTR channel activator + CFTR channel blocker (NPPB (50 µM), glibenclamide (500 µM), gemfibrozil (2 mM), or 9AC (2 mM)). Following administration, ischemia was induced for 8 hours, and, after 96 hours of subsequent reperfusion, cell viability was assayed using MTT (Figure 2).
During ischemic treatment, the primary cultures of rat ventricular myocytes were administered with CFTR channel activator (milrinone (0.73 µg, 1 ml), isoproterenol (10 nM), and PMA (100 nM) used together (MIP)), or CFTR channel activator + CFTR channel blocker (NPPB (50 µM), glibenclamide (500 µM), gemfibrozil (2 mM), or 9AC (2 mM)). Following administration, ischemia was induced for 8 hours, and, after 96 hours of subsequent reperfusion, cell viability was assayed using MTT (Figure 3).

[2] = tested on: rat ventricular myocytes; assay: Necrotic cell death by Hoechst 33342 / propidium iodide double staining immediately after ischemia; assay type: cell-based; conditions: Ventricular myocyte, NPPB 50 µM at start of ischemic treatment, after 8 hours of ischemia, group without reagent 44.4%, read-out: cells stained by PI
Procedure: Primary cultures of rat ventricular myocytes were prepared and cultured in the manner described in Example 1. The procedures of Example 1 were also used to expose the primary cultures of rat ventricular myocytes to ischemic treatment (removal of glucose and oxygen). […] Immediately after ischemia, cells were double stained to examine a rate of necrotic cell death, using Hoechst 33342 and propidium iodide (PI) according to a method known in the art. Hoechst 33342 stains the nucleus of all cells, and propidium iodide (PI) stains only dead cells with necrosis-induced membrane injury.

[3] = tested on: rat ventricular myocytes; assay: Nuclear DNA fragmentation (apoptosis) by Cell Death Detection ELISA, enrichment factor; assay type: cell-based; conditions: NPPB 50 µM or dbcAMP 1mM + PMA 100 nM
Procedure: Primary cultures of rat ventricular myocytes were prepared and cultured in the manner described in Example 1. The procedures of Example 1 were also used to expose the primary cultures of rat ventricular myocytes to ischemic treatment (removal of glucose and oxygen) and post-ischemic reperfusion. The primary cultures of rat ventricular myocytes were administered with CFTR channel activator (PKA activator dbcAMP (1mM) + PKC activator PMA (100 nM)), or CFTR channel blocker (NPPB (50 µM)). Administration was made at the start of ischemic treatment, which lasted 8 hours. Fragmentation of nuclear DNA in the cells was assayed immediately after ischemia or 96 hours after post-ischemic reperfusion (Figure 5). Specifically, DNA fragmentation was assayed using a method (DNA fragmentation detecting method (Cell Death Detection ELIZA kit^PLUS (Roche Diagnostics), which specifically detects […] that are characteristics of apoptotic cells. The result of measurement was obtained as enrichment factor, which was calculated according to the following formula. Enrichment factor (rate of nuclear DNA fragmentation) = absorbance of sample (dead cells)/absorbance of control (untreated cells) [formula]

[4] = extended period (45 minutes); cited from earlier work
[5] = tested on: ischemic cardiac muscle; conditions: cited from earlier work; for effect on ischemic cardiac muscle: administered after a period of ischemia; for size of infarct in ischemic cardiac muscle: pre-ischemic administration
[6] = cited from earlier work
[7] = dbcAMP 1mM and/or PMA 100 nM during ischemic treatment, 8 hours ischemia, 96 hours reperfusion, MTT (Figure 2)

O=C(O)c1cc([N+](=O)[O-])ccc1NCCCc1ccccc1 [NPPB, 5-nitro-2-2(3-phenylpropylamino)-benzoate]
cell viability ([1]; 50 µM NPPB administered during ischemic treatment (8 hours), MTT 96 hours after start of reperfusion): significant reduction
effect of dbcAMP + PMA on cell viability under co-application of CFTR channel blocker [1]: completely abolished
cytotoxicity at 50 µM [2]: 90.3%
level of DNA fragmentation ([3]; 96 hours after reperfusion, compared with non-administered group): no significant difference
level of DNA fragmentation ([3]; immediately after 8 hours ischemia, compared with non-ischemic cells (score of 1)): the same

CC(C)c1ccc(C(=O)NC(=N)N)cc1S(C)(=O)=O [cariporide]
effect on injury caused by post-ischemic reperfusion [4]: ineffective

Nc1cc(-c2ccncc2)c[nH]c1=O [amrinone]
effect on ischemic cardiac muscle [5]: do not exhibit any effect
size of infarct in ischemic cardiac muscle [5]: effective in reducing the size of infarct

COc1ccc(Cl)cc1C(=O)NCCc1ccc(S(=O)(=O)NC(=O)NC2CCCCC2)cc1 [glibenclamide]
effect of dbcAMP + PMA on cell viability under co-application of CFTR channel blocker [1]: completely abolished

CCCC(=O)Nc1ncnc2c1ncn2[C@@H]1O[C@@H]2COP(=O)(O)O[C@H]2[C@H]1OC(=O)CCC [dbcAMP, N6,2'-O-dibutyriladenosine-3':5'-cyclic monophosphate]
cell viability [1, 7]: could not produce the effect

Cc1[nH]c(=O)c(C#N)cc1-c1ccncc1 [milrinone, 1,6-dihydro-2-methyl-6-oxo[3,4'-bipyridine]-5-carbonitrile]
effect on ischemic cardiac muscle [5]: do not exhibit any effect
size of infarct in ischemic cardiac muscle [5]: effective in reducing the size of infarct
milrinone in the blood circulating bound to protein ([6]; blood): about 70%
excretion / metabolism ([6]; in vivo): released into urine without being metabolized
half-life ([6]; in vivo): 2 h

CCCCCCCCCCCCCC(=O)O[C@@H]1[C@@H](C)[C@@]2(O)[C@@H](C=C(CO)C[C@]3(O)C(=O)C(C)=C[C@@H]23)[C@@H]2C(C)(C)[C@]12OC(C)=O [PMA, phorbol 12-myristate 13-acetate]
cell viability [1, 7]: could not produce the effect

Cc1ccc(C)c(OCCCC(C)(C)C(=O)O)c1 [gemfibrozil]
effect of dbcAMP + PMA on cell viability under co-application of CFTR channel blocker [1]: completely abolished
